pIC50: −log10 of the molar value.
Key:
Design in all cases: species or system Placenta
Aromatase [1] = target: T1, Aromatase (Homo sapiens, UniProt P11511); experiment: Relative potency for aromatase inhibition in human placental microsomes compared to flavanone
T1 sequence (P11511 whole entry): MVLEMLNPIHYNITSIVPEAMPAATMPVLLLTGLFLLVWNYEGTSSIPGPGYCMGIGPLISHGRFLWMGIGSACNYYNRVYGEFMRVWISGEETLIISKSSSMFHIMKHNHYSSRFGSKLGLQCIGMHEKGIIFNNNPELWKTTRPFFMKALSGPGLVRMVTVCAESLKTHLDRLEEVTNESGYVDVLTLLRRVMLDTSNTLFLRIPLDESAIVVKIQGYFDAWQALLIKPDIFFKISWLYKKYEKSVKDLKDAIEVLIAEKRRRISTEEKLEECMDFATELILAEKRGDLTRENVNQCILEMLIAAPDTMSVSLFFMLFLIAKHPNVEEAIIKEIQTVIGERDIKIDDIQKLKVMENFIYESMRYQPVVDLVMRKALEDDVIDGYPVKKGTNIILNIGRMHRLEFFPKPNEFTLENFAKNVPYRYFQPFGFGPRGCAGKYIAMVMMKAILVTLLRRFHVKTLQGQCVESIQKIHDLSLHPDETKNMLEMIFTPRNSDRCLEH

Aromatase [2] = target: T1, Aromatase; experiment: Relative potency for aromatase inhibition in human placental microsomes compared to aminoglutethimide
Aromatase [3] = target: T1, Aromatase; experiment: Inhibition of aromatase activity in human placental microsomes

`Oc1ccc2c(c1)OC(c1ccccc1)CC2n1ccnc1` (stereo not drawn) was tested, and the Relative potency (Aromatase [1]) was 93, the Relative potency (Aromatase [2]) was 127 and the pIC50 (Aromatase [3]) was 7.39.

— ChEMBL document CHEMBL1135202, “Design, synthesis and evaluation of 4-imidazolylflavans as new leads for aromatase inhibition” (Bioorg Med Chem Lett, 2002)
